Measurements from patent US9969694B2, “N-(arylalkyl)-N′-pyrazolyl-urea, thiourea, guanidine and cyanoguanidine compounds as TrkA kinase inhibitors” (Array BioPharma Inc., priority 2012, dated 2018).
Values belong to the molecule of their own block, whether it stands above or below them.

Key:
Assay in all cases: Off-Target Kinase Profiling
Type in all cases: biochemical
Conditions in all cases: 10 μM; ATP near Km
HIPK2 = molecular target: T1, HIPK2 (Homo sapiens, UniProt Q9H2X6)
T1 construct: purchased Millipore, Inc. (KinaseProfiler service)
Method in brief: (§1)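 Each kinase was run with ATP at roughly its Km. Test compound was added at a fixed 10 μM and assayed twice, and activity was expressed relative to control as POC.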

SGK2 = molecular target: T2, SGK2 (Homo sapiens, UniProt Q9HBY8)
T2 construct: purchased Millipore, Inc. (KinaseProfiler service)
Method in brief: as §1

ULK3 = molecular target: T3, ULK3 (Homo sapiens, UniProt Q6PHR2)
T3 construct: purchased Millipore, Inc. (KinaseProfiler service)
Method in brief: as §1

HIPK1 = molecular target: T4, HIPK1 (Homo sapiens, UniProt Q86Z02)
T4 construct: purchased Millipore, Inc. (KinaseProfiler service)
Method in brief: as §1

TEC Activated = molecular target: T5, TEC Activated (Homo sapiens, UniProt P42680)
T5 construct: purchased Millipore, Inc. (KinaseProfiler service)
Method in brief: as §1

Haspin = molecular target: T6, Haspin (Homo sapiens, UniProt Q8TF76)
T6 construct: purchased Millipore, Inc. (KinaseProfiler service)
Method in brief: as §1

MST1 = molecular target: T7, MST1 (Homo sapiens, UniProt Q13043)
T7 construct: purchased Millipore, Inc. (KinaseProfiler service)
Method in brief: as §1

PKCalpha = molecular target: T8, PKCalpha (Homo sapiens, UniProt P17252)
T8 construct: purchased Millipore, Inc. (KinaseProfiler service)
Method in brief: as §1

CAMK2b = molecular target: T9, CAMK2b (Homo sapiens, UniProt Q13554)
T9 construct: purchased Millipore (KinaseProfiler service)
Method in brief: as §1

TAO3 = molecular target: T10, TAO3 (Homo sapiens, UniProt Q9H2K8)
T10 construct: purchased Millipore, Inc. (KinaseProfiler service)
Method in brief: as §1

ZAP-70 = molecular target: T11, ZAP-70 (Homo sapiens, UniProt P43403)
T11 construct: purchased Millipore, Inc. (KinaseProfiler service)
Method in brief: as §1

Flt4 = molecular target: T12, Flt4 (Homo sapiens, UniProt P35916)
T12 construct: purchased Millipore, Inc. (KinaseProfiler service)
Method in brief: as §1

IKKbeta = molecular target: T13, IKKbeta (Homo sapiens, UniProt O14920)
T13 construct: purchased Millipore, Inc. (KinaseProfiler service)
Method in brief: as §1

GRK7 = molecular target: T14, GRK7 (Homo sapiens, UniProt Q8WTQ7)
T14 construct: purchased Millipore, Inc. (KinaseProfiler service)
Method in brief: as §1

DDR2 = molecular target: T15, DDR2 (Homo sapiens, UniProt Q16832)
T15 construct: purchased Millipore, Inc. (KinaseProfiler service)
Method in brief: as §1

PKCbetaII = molecular target: T16, PKCbetaII (Homo sapiens, UniProt P05771)
T16 construct: purchased Millipore, Inc. (KinaseProfiler service)
Method in brief: as §1

ULK2 = molecular target: T17, ULK2 (Homo sapiens, UniProt Q8IYT8)
T17 construct: purchased Millipore, Inc. (KinaseProfiler service)
Method in brief: as §1

MELK = molecular target: T18, MELK (Homo sapiens, UniProt Q14680)
T18 construct: purchased Millipore, Inc. (KinaseProfiler service)
Method in brief: as §1

PKCiota = molecular target: T19, PKCiota (Homo sapiens, UniProt P41743)
T19 construct: purchased Millipore, Inc. (KinaseProfiler service)
Method in brief: as §1

MST3 = molecular target: T20, MST3 (Homo sapiens, UniProt Q9Y6E0)
T20 construct: purchased Millipore, Inc. (KinaseProfiler service)
Method in brief: as §1

PKCgamma = molecular target: T21, PKCgamma (Homo sapiens, UniProt P05129)
T21 construct: purchased Millipore, Inc. (KinaseProfiler service)
Method in brief: as §1

PDGFRbeta = molecular target: T22, PDGFRbeta (Homo sapiens, UniProt P09619)
T22 construct: purchased Millipore, Inc. (KinaseProfiler service)
Method in brief: as §1

PAK2 = molecular target: T23, PAK2 (Homo sapiens, UniProt Q13177)
T23 construct: purchased Millipore, Inc. (KinaseProfiler service)
Method in brief: as §1

IRAK1 = molecular target: T24, IRAK1 (Homo sapiens, UniProt P51617)
T24 construct: purchased Millipore, Inc. (KinaseProfiler service)
Method in brief: as §1

PKAC-alpha = molecular target: T25, PKAC-alpha (Homo sapiens, UniProt P17612)
T25 construct: purchased Millipore, Inc. (KinaseProfiler service)
Method in brief: as §1

CAMK2g = molecular target: T26, CAMK2g (Homo sapiens, UniProt Q13555)
T26 construct: purchased Millipore (KinaseProfiler service)
Method in brief: as §1

Rsk4 = molecular target: T27, Rsk4 (Homo sapiens, UniProt Q9UK32)
T27 construct: purchased Millipore, Inc. (KinaseProfiler service)
Method in brief: as §1

p38beta = molecular target: T28, p38beta (Homo sapiens, UniProt Q15759)
T28 construct: purchased Millipore, Inc. (KinaseProfiler service)
Method in brief: as §1

PKCbetaI = molecular target: T29, PKCbetaI (Homo sapiens, UniProt P05771)
T29 construct: purchased Millipore, Inc. (KinaseProfiler service)
Method in brief: as §1

Fms = molecular target: T30, Fms (Homo sapiens, UniProt P07333)
T30 construct: purchased Millipore, Inc. (KinaseProfiler service)
Method in brief: as §1

Abl2 = molecular target: T31, Abl2 (Homo sapiens, UniProt P42684)
T31 construct: purchased Millipore (KinaseProfiler service)
Method in brief: as §1

MRCKalpha = molecular target: T32, MRCKalpha (Homo sapiens, UniProt Q5VT25)
T32 construct: purchased Millipore, Inc. (KinaseProfiler service)
Method in brief: as §1

EphB3 = molecular target: T33, EphB3 (Homo sapiens, UniProt P54753)
T33 construct: purchased Millipore, Inc. (KinaseProfiler service)
Method in brief: as §1

IKKalpha = molecular target: T34, IKKalpha (Homo sapiens, UniProt O15111)
T34 construct: purchased Millipore, Inc. (KinaseProfiler service)
Method in brief: as §1

CDK5/p25 = molecular target: T35, CDK5/p25 (Homo sapiens, UniProt Q00535)
T35 construct: purchased Millipore, Inc. (KinaseProfiler service)
Method in brief: as §1

Rse = molecular target: T36, Rse (Homo sapiens, UniProt Q06418)
T36 construct: purchased Millipore, Inc. (KinaseProfiler service)
Method in brief: as §1

BTK = molecular target: T37, BTK (Homo sapiens, UniProt Q06187)
T37 construct: purchased Millipore (KinaseProfiler service)
Method in brief: as §1

Axl = molecular target: T38, Axl (Homo sapiens, UniProt P30530)
T38 construct: purchased Millipore (KinaseProfiler service)
Method in brief: as §1

AKT2 = molecular target: T39, AKT2 (Homo sapiens, UniProt P31751)
T39 construct: purchased Millipore (KinaseProfiler service)
Method in brief: as §1

AMPK(A1/B1/G1) = molecular target: T40, AMPK(A1/B1/G1) (Homo sapiens, UniProt Q13131)
T40 construct: purchased Millipore (KinaseProfiler service)
Method in brief: as §1

WNK3 = molecular target: T41, WNK3 (Homo sapiens, UniProt Q9BYP7)
T41 construct: purchased Millipore, Inc. (KinaseProfiler service)
Method in brief: as §1

T9 sequence (Q13554 whole entry): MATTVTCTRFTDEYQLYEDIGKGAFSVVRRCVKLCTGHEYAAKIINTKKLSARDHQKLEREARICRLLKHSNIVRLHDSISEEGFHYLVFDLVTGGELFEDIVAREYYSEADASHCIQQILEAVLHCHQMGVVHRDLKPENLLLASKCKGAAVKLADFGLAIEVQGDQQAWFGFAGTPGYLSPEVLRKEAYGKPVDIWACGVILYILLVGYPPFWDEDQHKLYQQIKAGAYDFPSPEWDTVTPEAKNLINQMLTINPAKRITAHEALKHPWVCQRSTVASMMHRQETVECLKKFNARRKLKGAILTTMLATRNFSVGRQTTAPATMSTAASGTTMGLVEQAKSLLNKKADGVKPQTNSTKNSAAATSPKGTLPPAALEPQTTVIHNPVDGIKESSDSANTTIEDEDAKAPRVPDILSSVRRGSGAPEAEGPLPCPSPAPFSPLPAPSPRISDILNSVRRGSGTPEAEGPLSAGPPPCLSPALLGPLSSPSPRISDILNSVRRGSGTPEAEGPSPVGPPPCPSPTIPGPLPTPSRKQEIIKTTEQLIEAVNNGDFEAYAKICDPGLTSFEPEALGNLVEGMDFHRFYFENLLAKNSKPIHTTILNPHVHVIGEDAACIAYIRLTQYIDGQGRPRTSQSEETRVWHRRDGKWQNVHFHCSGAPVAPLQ
T37 sequence (Q06187 whole entry): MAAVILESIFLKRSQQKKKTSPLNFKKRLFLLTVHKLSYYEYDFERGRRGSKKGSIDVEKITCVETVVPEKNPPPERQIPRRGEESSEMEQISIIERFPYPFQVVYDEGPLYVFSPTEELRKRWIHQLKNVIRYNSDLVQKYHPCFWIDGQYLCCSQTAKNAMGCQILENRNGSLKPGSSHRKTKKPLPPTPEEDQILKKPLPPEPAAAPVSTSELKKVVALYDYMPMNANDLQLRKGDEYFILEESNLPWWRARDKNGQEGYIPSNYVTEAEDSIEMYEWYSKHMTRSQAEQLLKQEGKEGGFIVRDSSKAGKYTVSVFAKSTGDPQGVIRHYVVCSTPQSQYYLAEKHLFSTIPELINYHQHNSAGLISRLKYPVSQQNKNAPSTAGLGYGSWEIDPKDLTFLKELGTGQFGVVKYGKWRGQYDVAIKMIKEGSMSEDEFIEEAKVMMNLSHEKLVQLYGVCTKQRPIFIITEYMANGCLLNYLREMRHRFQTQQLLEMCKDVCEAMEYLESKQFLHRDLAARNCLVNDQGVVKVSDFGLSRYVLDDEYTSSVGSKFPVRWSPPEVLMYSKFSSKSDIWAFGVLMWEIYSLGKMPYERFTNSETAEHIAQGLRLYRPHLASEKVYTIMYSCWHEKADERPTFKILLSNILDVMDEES
T10 sequence (Q9H2K8 whole entry): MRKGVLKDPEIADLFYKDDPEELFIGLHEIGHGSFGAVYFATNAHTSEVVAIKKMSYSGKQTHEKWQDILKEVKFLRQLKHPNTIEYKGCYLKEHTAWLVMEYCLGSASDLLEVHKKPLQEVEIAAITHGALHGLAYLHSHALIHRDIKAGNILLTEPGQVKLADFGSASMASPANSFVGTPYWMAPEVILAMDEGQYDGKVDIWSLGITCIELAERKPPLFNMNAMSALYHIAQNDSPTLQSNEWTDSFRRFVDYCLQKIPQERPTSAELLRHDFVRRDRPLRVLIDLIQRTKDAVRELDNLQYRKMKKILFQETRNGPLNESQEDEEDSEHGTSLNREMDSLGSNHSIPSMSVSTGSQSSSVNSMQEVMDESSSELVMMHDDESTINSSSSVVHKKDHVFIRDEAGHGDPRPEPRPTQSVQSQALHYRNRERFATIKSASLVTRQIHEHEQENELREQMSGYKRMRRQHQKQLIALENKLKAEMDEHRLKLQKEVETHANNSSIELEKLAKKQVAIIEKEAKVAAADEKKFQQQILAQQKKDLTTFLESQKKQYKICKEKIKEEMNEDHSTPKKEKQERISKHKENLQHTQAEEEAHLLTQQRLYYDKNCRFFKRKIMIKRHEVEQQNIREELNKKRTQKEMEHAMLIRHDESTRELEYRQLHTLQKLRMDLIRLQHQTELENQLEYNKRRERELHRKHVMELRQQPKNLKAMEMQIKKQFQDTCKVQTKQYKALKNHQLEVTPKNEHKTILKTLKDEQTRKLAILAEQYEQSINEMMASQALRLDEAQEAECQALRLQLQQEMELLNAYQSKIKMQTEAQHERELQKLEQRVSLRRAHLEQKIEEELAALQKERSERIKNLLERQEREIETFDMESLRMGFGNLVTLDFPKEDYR
T31 sequence (P42684 whole entry): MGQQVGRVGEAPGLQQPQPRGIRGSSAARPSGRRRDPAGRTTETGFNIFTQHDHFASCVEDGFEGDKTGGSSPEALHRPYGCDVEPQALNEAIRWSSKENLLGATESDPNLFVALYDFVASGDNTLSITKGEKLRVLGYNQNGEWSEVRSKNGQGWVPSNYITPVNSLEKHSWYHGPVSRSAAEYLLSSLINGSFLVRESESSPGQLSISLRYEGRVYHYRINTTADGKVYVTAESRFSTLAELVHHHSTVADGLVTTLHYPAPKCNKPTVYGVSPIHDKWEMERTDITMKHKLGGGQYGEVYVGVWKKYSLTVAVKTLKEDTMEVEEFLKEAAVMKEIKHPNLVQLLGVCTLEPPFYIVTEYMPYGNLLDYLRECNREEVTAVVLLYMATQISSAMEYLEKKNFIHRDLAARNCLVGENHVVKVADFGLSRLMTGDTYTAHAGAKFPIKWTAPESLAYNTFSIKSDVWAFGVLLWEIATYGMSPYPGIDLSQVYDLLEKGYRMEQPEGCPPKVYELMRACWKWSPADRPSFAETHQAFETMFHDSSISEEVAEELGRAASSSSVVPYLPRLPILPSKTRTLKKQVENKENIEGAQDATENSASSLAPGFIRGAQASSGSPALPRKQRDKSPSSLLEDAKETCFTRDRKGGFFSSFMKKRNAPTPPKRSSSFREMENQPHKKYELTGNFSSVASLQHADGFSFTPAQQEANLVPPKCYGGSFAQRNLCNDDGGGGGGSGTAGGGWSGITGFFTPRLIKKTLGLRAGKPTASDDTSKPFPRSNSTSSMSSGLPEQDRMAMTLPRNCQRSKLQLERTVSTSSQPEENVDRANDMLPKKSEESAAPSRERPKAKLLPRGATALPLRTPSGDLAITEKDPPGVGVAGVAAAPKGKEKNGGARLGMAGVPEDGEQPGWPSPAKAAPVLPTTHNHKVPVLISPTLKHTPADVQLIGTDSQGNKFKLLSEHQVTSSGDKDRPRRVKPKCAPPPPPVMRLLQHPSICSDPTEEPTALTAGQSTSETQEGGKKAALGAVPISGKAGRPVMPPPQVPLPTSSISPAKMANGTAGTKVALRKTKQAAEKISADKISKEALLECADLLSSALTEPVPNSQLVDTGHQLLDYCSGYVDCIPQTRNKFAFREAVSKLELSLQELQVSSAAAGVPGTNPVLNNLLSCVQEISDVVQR
T17 sequence (Q8IYT8 whole entry): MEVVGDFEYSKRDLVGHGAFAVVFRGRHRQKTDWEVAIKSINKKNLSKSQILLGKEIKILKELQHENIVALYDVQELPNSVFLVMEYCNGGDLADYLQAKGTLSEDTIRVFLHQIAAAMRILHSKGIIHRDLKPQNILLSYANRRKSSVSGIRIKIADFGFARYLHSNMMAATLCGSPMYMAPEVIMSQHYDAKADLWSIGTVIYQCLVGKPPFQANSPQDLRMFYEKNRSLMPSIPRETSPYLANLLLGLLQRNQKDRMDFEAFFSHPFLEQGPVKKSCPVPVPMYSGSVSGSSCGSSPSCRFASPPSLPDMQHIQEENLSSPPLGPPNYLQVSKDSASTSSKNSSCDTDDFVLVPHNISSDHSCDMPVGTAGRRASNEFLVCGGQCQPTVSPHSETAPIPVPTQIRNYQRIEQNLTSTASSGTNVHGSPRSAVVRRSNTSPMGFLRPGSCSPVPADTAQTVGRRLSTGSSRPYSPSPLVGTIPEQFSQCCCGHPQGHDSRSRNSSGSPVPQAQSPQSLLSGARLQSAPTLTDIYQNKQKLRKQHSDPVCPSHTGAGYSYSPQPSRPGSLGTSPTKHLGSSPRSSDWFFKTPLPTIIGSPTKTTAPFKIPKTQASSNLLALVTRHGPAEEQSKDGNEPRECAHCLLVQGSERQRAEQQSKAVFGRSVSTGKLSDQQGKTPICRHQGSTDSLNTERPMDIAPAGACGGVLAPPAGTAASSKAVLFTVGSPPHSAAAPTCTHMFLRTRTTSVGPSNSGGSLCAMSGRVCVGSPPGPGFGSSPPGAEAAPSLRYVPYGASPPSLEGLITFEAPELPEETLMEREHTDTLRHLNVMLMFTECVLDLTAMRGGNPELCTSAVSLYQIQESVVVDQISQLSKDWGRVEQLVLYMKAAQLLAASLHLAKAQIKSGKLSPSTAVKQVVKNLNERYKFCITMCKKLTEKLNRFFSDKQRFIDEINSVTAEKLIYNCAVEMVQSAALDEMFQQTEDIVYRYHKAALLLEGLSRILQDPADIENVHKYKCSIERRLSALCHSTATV
T3 sequence (Q6PHR2 whole entry): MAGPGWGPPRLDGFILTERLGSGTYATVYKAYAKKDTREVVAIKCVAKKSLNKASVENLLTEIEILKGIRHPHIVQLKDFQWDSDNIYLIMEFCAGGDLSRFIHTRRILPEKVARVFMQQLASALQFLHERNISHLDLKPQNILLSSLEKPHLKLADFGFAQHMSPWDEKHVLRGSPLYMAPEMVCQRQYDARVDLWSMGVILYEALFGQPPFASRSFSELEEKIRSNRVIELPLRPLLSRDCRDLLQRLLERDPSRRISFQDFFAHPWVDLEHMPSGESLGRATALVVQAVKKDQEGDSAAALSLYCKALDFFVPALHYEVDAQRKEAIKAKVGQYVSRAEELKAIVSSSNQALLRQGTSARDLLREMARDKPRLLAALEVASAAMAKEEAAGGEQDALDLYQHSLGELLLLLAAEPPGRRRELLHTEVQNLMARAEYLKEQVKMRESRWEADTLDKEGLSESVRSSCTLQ

Avg POC HIPK2 (HIPK2): 95 POC | Avg POC SGK2 (SGK2): 208 POC | Avg POC ULK3 (ULK3): 99.5 POC | Avg POC HIPK1 (HIPK1): 115.5 POC | Avg POC TEC Activated (TEC Activated): 138.5 POC | Avg POC Haspin (Haspin): 109 POC | Avg POC MST1 (MST1): 87.5 POC | Avg POC PKCalpha (PKCalpha): 104.5 POC | Avg POC CAMK2b (CAMK2b): 96 POC | Avg POC TAO3 (TAO3): 89.5 POC | Avg POC ZAP-70 (ZAP-70): 149 POC | Avg POC Flt4 (Flt4): 94 POC | Avg POC IKKbeta (IKKbeta): 120.5 POC | Avg POC GRK7 (GRK7): 103 POC | Avg POC DDR2 (DDR2): 111 POC | Avg POC PKCbetaII (PKCbetaII): 96 POC | Avg POC ULK2 (ULK2): 98.5 POC | Avg POC MELK (MELK): 114 POC | Avg POC PKCiota (PKCiota): 64 POC | Avg POC MST3 (MST3): 126.5 POC | Avg POC PKCgamma (PKCgamma): 98 POC | Avg POC PDGFRbeta (PDGFRbeta): 166.5 POC | Avg POC PAK2 (PAK2): 89.5 POC | Avg POC IRAK1 (IRAK1): 113 POC | Avg POC PKAC-alpha (PKAC-alpha): 139.5 POC | Avg POC CAMK2g (CAMK2g): 112 POC | Avg POC Rsk4 (Rsk4): 95 POC | Avg POC p38beta (p38beta): 111.5 POC | Avg POC PKCbetaI (PKCbetaI): 111.5 POC | Avg POC Fms (Fms): 88.5 POC | Avg POC Abl2 (Abl2): 139.5 POC | Avg POC MRCKalpha (MRCKalpha): 147 POC | Avg POC EphB3 (EphB3): 69 POC | Avg POC IKKalpha (IKKalpha): 137.5 POC | Avg POC CDK5/p25 (CDK5/p25): 100.5 POC | Avg POC Rse (Rse): 110 POC | Avg POC BTK (BTK): 125 POC | Avg POC Axl (Axl): 117 POC | Avg POC AKT2 (AKT2): 199 POC | Avg POC AMPK(A1/B1/G1) (AMPK(A1/B1/G1)): 147.5 POC | Avg POC WNK3 (WNK3): 111 POC
Structure (SMILES): COCc1ccc(C(F)(F)F)c(CNC(=O)Nc2c(C)c(-c3cnn(C)c3)nn2-c2ccccc2)c1 [Example 33, 1-(1′,4-dimethyl-1-phenyl-1H,1′H-[3,4′-bipyrazol]-5-yl)-3-(5-(methoxymethyl)-2-(trifluoromethyl)benzyl)urea]

Avg POC HIPK2 (HIPK2): 102.5 POC | Avg POC SGK2 (SGK2): 80.5 POC | Avg POC ULK3 (ULK3): 93.5 POC | Avg POC HIPK1 (HIPK1): 100.5 POC | Avg POC TEC Activated (TEC Activated): 88.5 POC | Avg POC Haspin (Haspin): 80.5 POC | Avg POC MST1 (MST1): 87.5 POC | Avg POC PKCalpha (PKCalpha): 100.5 POC | Avg POC CAMK2b (CAMK2b): 94 POC | Avg POC TAO3 (TAO3): 88.5 POC | Avg POC ZAP-70 (ZAP-70): 120.5 POC | Avg POC Flt4 (Flt4): 88 POC | Avg POC IKKbeta (IKKbeta): 104.5 POC | Avg POC GRK7 (GRK7): 105 POC | Avg POC DDR2 (DDR2): 105.5 POC | Avg POC PKCbetaII (PKCbetaII): 94 POC | Avg POC ULK2 (ULK2): 89 POC | Avg POC MELK (MELK): 83.5 POC | Avg POC PKCiota (PKCiota): 65.5 POC | Avg POC MST3 (MST3): 99 POC | Avg POC PKCgamma (PKCgamma): 101 POC | Avg POC PDGFRbeta (PDGFRbeta): 106 POC | Avg POC PAK2 (PAK2): 88 POC | Avg POC IRAK1 (IRAK1): 101 POC | Avg POC PKAC-alpha (PKAC-alpha): 132 POC | Avg POC CAMK2g (CAMK2g): 101 POC | Avg POC Rsk4 (Rsk4): 87 POC | Avg POC p38beta (p38beta): 101.5 POC | Avg POC PKCbetaI (PKCbetaI): 104.5 POC | Avg POC Fms (Fms): 83.5 POC | Avg POC Abl2 (Abl2): 95 POC | Avg POC MRCKalpha (MRCKalpha): 122 POC | Avg POC EphB3 (EphB3): 100 POC | Avg POC IKKalpha (IKKalpha): 112.5 POC | Avg POC CDK5/p25 (CDK5/p25): 107.5 POC | Avg POC Rse (Rse): 103 POC | Avg POC BTK (BTK): 117.5 POC | Avg POC Axl (Axl): 104.5 POC | Avg POC AKT2 (AKT2): 142 POC | Avg POC AMPK(A1/B1/G1) (AMPK(A1/B1/G1)): 111.5 POC | Avg POC WNK3 (WNK3): 101.5 POC
Structure (SMILES): COCc1ccc(C2CCC2)c(CNC(=O)Nc2c(C)c(-c3cnc(C)nc3)nn2-c2ccccc2)c1 [Example 10, 1-(2-cyclobutyl-5-(methoxymethyl)benzyl)-3-(4-methyl-3-(2-methylpyrimidin-5-yl)-1-phenyl-1H-pyrazol-5-yl)urea]
